The series is described as follows: in vitro. To be noted: rat, liver microsomes.
Regarding `COc1ccc(-c2ccccc2C2CCN(CCCCOc3cnccn3)CC2)cc1`, the share remaining at 0.5 h, 10 µM was determined as 6%.
`COc1ccc(-c2ccccc2N2CCN(CCCCOc3ccccc3C#N)CC2)cc1` displayed a fraction remaining at 0.5 h, 10 µM of 7%.
Consider `COc1ccc(-c2ccccc2N2CCN(C[C@@H](O)COc3ccc(-c4cn5ccccc5n4)cc3)CC2)cc1`, for which the share remaining at 0.5 h, 10 µM turned out to be 48%.
